This is an account of results in patent publication US9969686B2, “Synthesis of diindolylmethanes and indolo[3,2-b]carbazoles, compounds formed thereby, and pharmaceutical compositions containing them” (Wisconsin Alumni Research Foundation, priority 2014, dated 2018).

Each structure is given as a SMILES string. Like-named read-outs stand apart in the source and are kept apart here.

One data set concerns the target AhR (Homo sapiens (Human), UniProt P35869). Kind of data set: ethoxyresorufin-O-deethylase (EROD) assay, AhR activation (CYP1A1 induction). It is filed as cell-based. Particulars: for increase of signal over DMSO treatment: at 10 nM concentration, data not shown. How it is done: The human Hep G2 cell line from the Small Molecule Screening and Synthesis Facility (UWCCC, Madison, Wis.) and was maintained in DMEM medium supplemented with 10% FBS. Cells were incubated at 37° C. in a humidified atmosphere supplemented with 5% CO2.
Preparation of cells: Cells were cleaved from T75 flasks with 0.05% trypsin. The cells were then collected by spinning at 1 g for 4 min. Excess media containing trypsin was removed from the pellet, which was then re-suspended in growth media. The cells were then counted using a hemocytometer. Cells were plated in sterile 96-well clear bottom black culture plates at a density of 20,000 cells per well in 0.1 mL of media. The cells were then incubated for 24 h at 37° C. in a humidified atmosphere supplemented with 5% CO2.
The ethoxyresorufin-O-deethylase (EROD) assay was performed on cell cultures of human Hep G2 cells. Briefly, 24 h after plating, cells in 96-well plates were treated with AhR agonists and allowed to incubate for 24 h. Each well was then rinsed with 200 uL of PBS buffer twice. To each well was then added 100 uL of 150 nM solution of 7-ethoxyresurufin and allowed to incubate for 2 h. Fluorescence measurements were obtained with a Safire II micro plate reader with excitation at 520 nm with a 25 nm bandwidth and emission at 595 nm with a 20 nm bandwidth.
The bioactivity of malassezin analogs was then investigated. The well-documented ethoxyresorufin-O-deethylase (EROD) assay was used to determine the EC50 values of the compounds towards AhR activation in HepG2 cells. Donato, M. T.; Gomezlechon, M. J.; Castell, J. V. Anal. Biochem. 1993, 213, 29; van Tonder, J. J., University of Pretoria Z. A., Thesis, 2011. This assay measures the induction of cytochrome P450-1A1 (CYP1A1), which is a major outcome of AhR activation. Whyte, J. J.; Jung, R. E.; Schmitt, C. J.; Tillitt, D. E. Crit. Rev. Toxicol. 2000, 30, 347. CYP1A1 selectively converts 7-ethoxyresorufin to the fluorescent product resorufin.

The test system of the next data set is GLP-1 secretion. As to the kind of experiment: GLP-1 secretion assay (Table 5; cell line not stated). It is filed as cell-based. How it is done: The GLP-1 secretion assay identifies compounds that stimulate secretion of glucagonlikepeptide one (GLP-1) in mouse and human cell lines derived from gastrointestinal tract tissue. GLP-1 secretion is measured using an ELISA designed to detect the appropriate forms of GLP-1 secreted from these cells. If active in the cell-based GLP-1 assay, molecules can be further tested for selectivity in assays that measure activation of G-protein-coupled receptors (GPCRs) known to stimulate GLP-1 secretion. See, for example, “Glucagon-Like Peptide 1-Based Therapies for Type 2 Diabetes: A Focus on Exenatide,” Kathleen Dungan and John B. Buse; Clinical Diabetes 29 (1), (Winter 2011); and “Glucagon-Like Peptide 1 Secretion by the L-Cell,” Gareth E. Kim and Patricia L. Brubaker; Diabetes: 55 (supplement 2), (December, 2006).
The GLP-1 secretion, diabetes phenotypic testing identifies compounds that stimulate secretion of glucagon-like peptide one (GLP-1) in mouse and human cell lines derived from gastrointestinal tract tissue. GLP-1 secretion is measured using an Eli Lilly & Company (Indianapolis, Ind., USA) proprietary ELISA assay that was specifically designed to detect the appropriate forms of GLP-1 secreted from these cells. (Eli Lilly operates a program known Open Innovation Drug Discovery that performs such testing. See https://openinnovation.lilly.com/dd/.) If active in the cell-based GLP-1 assay, molecules are further tested for selectivity in assays that measure activation of GPCRs known to stimulate GLP-1 secretion. See Glucagon-Like Peptide 1-Based Therapies for Type 2 Diabetes: A Focus on Exenatide; Kathleen Dungan and John B. Buse; Clinical Diabetes: 29 (1), (Winter 2011); and Glucagon-Like Peptide 1 Secretion by the L-Cell; Gareth E. Kim and Patricia L. Brubaker; Diabetes: 55 (supplement 2), (December, 2006).

The subject of data set [1] is secreted PCSK9 in HepG2 cells. Kind of data set: PCSK9 inhibition assay (AlphaLISA, secreted PCSK9). The class given is cell-based. Particulars: Homo sapiens, Table 5. The text has this:
PCSK9 expression is actively regulated at transcription levels. Statins are known to stimulate PCSK9 transcription which in turn curbs the efficacy of statins in LDL lowering in humans. […] The PCSK9 SI phenotypic assay is designed to identify compounds that inhibit synthesis of PCSK9 in human hepatoma cell lines (HepG2). See, for example, Horton, J. D., Cohen, J. C., and Hobbs, H. H., “PCSK9: a convertase that coordinates LDL catabolism,” J. Lipid Res. 50 Suppl, S172-177, (2009); Crunkhorn, S. “Trial watch: PCSK9 antibody reduces LDL cholesterol,” Nat Rev Drug Discov 11, 11, (2012); Vogel, R. A., “PCSK9 inhibition: the next statin,” J Am Coll Cardiol 59, 2354-2355, (2012); Li, H., Dong, B., Park, S. W., Lee, H. S., Chen, W., and Liu, J., “Hepatocyte nuclear factor 1alpha plays a critical role in PCSK9 gene transcription and regulation by the natural hypocholesterolemic compound berberine,” J Biol Chem 284, 28885-28895, (2009); and Cao, A., Wu, M., Li, H., and Liu, J., “Janus Kinase activation by cytokine oncostatin M decreases PCSK9 expression in liver cells,” J Lipid Res 52, 518-530, (2011).
Inhibition of secreted PCSK9 was measured in human hepatocellular carcinoma (HepG2) cells using an “AlphaLISA”®-brand assay. Given that this assay is run in an inhibition mode, the viability of cells was also assessed to rule out compounds whose PCSK9 inhibition resulted from deleterious effects on cell health. Freshly cultured HepG2 cells were harvested from poly-d-lysine-coated T225 cell culture flasks and plated in biocoat poly-d-lysine coated 384 black with clear bottom microtiter plates (BD BioCoat #356663; Becton, Dickinson and Company, Franklin Lakes, N.J., USA) at 20,000 cells/well in 60 ul of growth media (MEM+10% heat inactivated FBS+1% NEAA+1% sodium pyruvate+1% GlutaMAX). Cell plates were incubated overnight at 37° C. and 5% CO2 prior to compound treatment.
Compounds were serially diluted 3-fold in 100% DMSO to achieve a starting final assay plate concentration of 50 uM following a 20-fold dilution in assay media (MEM+5% heat inactivated FBS+1% NEAA+1% sodium pyruvate+1% GlutaMAX) and a 10-fold dilution into the cell plates. While the compounds were diluting, the cell plates were washed twice with 75 ul of assay media and refilled with 45 ul of assay media. The cell plates were incubated for 48 hrs at 37° C. and 5% CO2 prior to running the “AlphaLISA”®-brand assay. The “AlphaLISA”® bead mix was assembled in water and left to incubate 1 hr in the dark prior to use (1× “AlphaLISA”® buffer, 5 mg/ml mAb-PCSK9-A4 conjugated acceptor beads, 3.4 uM bioti-mAb-anti-PCSK9-B9, 5 mg/ml streptavidin-coated donor beads). […] In the dark, 5 ul of the bead mix was added to the ProxiPlates, and then the plates were left to incubate at ambient temperature in the dark overnight before being read on an Envision (excitation 680 nm and emission 615 nm). […] The plates were removed from the incubator, sealed with black tape, and read for propidium iodide stained nuclei using an Acumen-brand cell imaging system (TTP Labtech Ltd., Melbourn, Hertfordshire United Kingdom). Percent inhibitions at all concentrations tested were calculated relative to 0.5% DMSO (min effect), and the effect of 50 uM of a fully efficacious PCSK9 inhibitor for the PCSK9 inhibition assay (max effect), or 50 uM Brefeldin A for the viability assay (max effect). IC50 values were calculated using a 4 parameter logistic curve fitting equation.

Data set [2] concerns IL-17 secretion from human peripheral blood mononuclear cells (PBMCs). Kind of data set: IL-17 phenotypic assay. The class given is cell-based. Conditions: PBMC, Table 5, read-out: IL17, IC50. The text has this: The IL-17 phenotypic assay seeks to identify inhibitors of IL-17 secretion from human peripheral blood mononuclear cells (PBMCs) following stimulation of memory T cells by IL-23, anti-CD3, and anti-CD28. Compounds of interest will inhibit IL-17. See W. Ouyang, J. K. Kolls, V. Zheng, “The biological functions of T helper 17 cell effector cytokines in inflammation,” Immunity, 28, 454-467 (2008); I. I. Ivanov, L. Zhou, D. R. Littman, “Transcriptional regulation of Th17 cell differentiation,” Semin Immunol, 19, 409-417 (2007); N. Mane I, D. Unutmaz, D. R. Littman, “The differentiation of human T(H)-17 cells requires transforming growth factor-beta and induction of the nuclear receptor RORgammat,” Nat Immunol, 9, 641-649 (2008); and M. Ciofani, A. Madar, C. Galan, M. Sellars, K. Mace, F. Pauli, A. Agarwal, W. Huang, C. N. Parkurst, M. Muratet, K. M. Newberry, S. Meadows, A. Greenfield, V. Vang, P. Jain, F. K. Kirigin, C. Birchmeier, E. F. Wagner, K. M. Murphy, R. M. Myers, R. Bonneau, D. R. Littman, “A validated regulatory network for Th17 cell specification.” Cell, 151, 289-303 (2012).

For the next data set, the system named is IL5. As to the kind of experiment: IL5 assay (Table 5). It is filed as cell-based.
For data set [3] the following is noted: in human; cited from earlier work.
[4] abbreviates: EROD assay, HepG2 cells, 24 h treatment, read-out: EC50 (AhR Activity of Diindolylmethanes).

AhR, sequence (P35869 11-848): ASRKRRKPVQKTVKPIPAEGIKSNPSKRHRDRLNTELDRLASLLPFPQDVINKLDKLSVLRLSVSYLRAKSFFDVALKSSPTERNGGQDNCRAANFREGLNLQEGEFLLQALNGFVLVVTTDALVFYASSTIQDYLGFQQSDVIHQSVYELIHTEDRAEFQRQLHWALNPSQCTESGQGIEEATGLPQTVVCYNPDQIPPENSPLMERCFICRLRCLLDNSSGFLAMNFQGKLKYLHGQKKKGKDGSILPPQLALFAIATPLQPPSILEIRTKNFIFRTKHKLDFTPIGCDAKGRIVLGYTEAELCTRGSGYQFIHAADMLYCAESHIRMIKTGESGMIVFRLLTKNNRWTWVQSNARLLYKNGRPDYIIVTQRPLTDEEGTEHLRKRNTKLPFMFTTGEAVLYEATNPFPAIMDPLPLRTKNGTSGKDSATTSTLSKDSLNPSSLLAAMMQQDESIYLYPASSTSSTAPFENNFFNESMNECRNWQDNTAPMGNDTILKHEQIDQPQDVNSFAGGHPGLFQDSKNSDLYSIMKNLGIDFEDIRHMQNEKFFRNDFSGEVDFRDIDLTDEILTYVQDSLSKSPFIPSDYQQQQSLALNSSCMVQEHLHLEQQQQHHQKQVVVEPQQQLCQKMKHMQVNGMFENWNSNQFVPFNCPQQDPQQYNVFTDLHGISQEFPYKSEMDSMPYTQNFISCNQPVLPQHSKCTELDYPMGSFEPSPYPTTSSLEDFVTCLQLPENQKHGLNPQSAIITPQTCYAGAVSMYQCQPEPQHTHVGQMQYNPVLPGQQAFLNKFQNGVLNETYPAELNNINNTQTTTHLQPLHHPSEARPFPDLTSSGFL

For orientation: EC50 means the concentration at which the effect is half-maximal. As for `O=Cc1c(Cc2c[nH]c3ccc(Cl)cc23)[nH]c2ccccc12` [Compound 11a], on AhR (setting [4]), the EC50 was 93 ± 150 nM. Also, the “increase of signal over DMSO treatment” value at AhR was 5 fold.

In the case of `Cc1ccc(S(=O)(=O)n2c(Cc3c[nH]c4cccc(C)c34)c(C)c3ccccc32)cc1`, it took 2.6 µM to reach a half-maximal effect with GLP-1 secretion (EC50). As to `Cc1ccc(S(=O)(=O)n2c(COC(C)C)c(C)c3ccccc32)cc1`, the half-maximal effective concentration (EC50) with GLP-1 secretion is 7.3 µM.

The IC50 is the point on the concentration scale where inhibition reaches its midpoint. Compound `COc1ccc(Cc2c(C)c3ccccc3n2S(=O)(=O)c2ccc(C)cc2)c(OC)c1` gave an EC50 in the data set on GLP-1 secretion of 2.9 µM. Moreover, the concentration for half-maximal inhibition (IC50) in data set [1] was determined as 1100 nM. For `Clc1cccc2c(Cc3cc4ccccc4[nH]3)c[nH]c12` [Compound 2351377820] the same measures were 7.2 µM and 2800 nM. On to `O=Cc1c(Cc2c[nH]c3ccccc23)[nH]c2ccccc12` [Compound 6, 2-((1H-indol-3-yl)methyl)-1H-indole-3-carbaldehyde, reference compound], for which the concentration giving a half-maximal response (EC50) on AhR (setting [4]) came to 270 ± 100 nM. Consider `Cc1ccc(S(=O)(=O)n2c(Cc3[nH]c4ccccc4c3CC#N)c(C)c3ccccc32)cc1`, for which the figures for the IC50 (in data set [2]; with IL5) were 3.1 µM and > 30 µM, respectively. On to `Cc1ccc(S(=O)(=O)n2c(Cc3cn(C)c4ccccc34)c(C(C)C)c3ccccc32)cc1`, for which 1100 nM corresponded to half-maximal inhibition in data set [1] (IC50). For `Clc1cc2c(cc1Cl)Oc1cc(Cl)c(Cl)cc1O2` [dioxin, 2,3,7,8-tetrachlorodibenzo-p-dioxin], in data set [3], the “half-life (metabolic stability)” value is 7-10 years. As to `O=Cc1c(Cc2c[nH]c3c(Cl)cccc23)[nH]c2ccccc12` [Compound 11b], the EC50 on AhR (setting [4]) turned out to be 320 ± 100 nM.

As to `COc1ccc2[nH]cc(Cc3cc4ccccc4[nH]3)c2c1` [Compound 10c], at AhR (setting [4]), the half-maximal effective concentration (EC50) came to 94 ± 270 nM. The same measure, in the same setting: for `Cn1cc(Cc2cc3ccccc3[nH]2)c2ccccc21` [Compound 10d] the value was 86 ± 40 nM. With `Brc1ccc2[nH]cc(Cc3cc4ccccc4[nH]3)c2c1` [Compound 2351377823], in the data set on GLP-1 secretion, the response was half-maximal at 6.8 µM (EC50). Consider `c1ccc2[nH]c(Cc3c[nH]c4ccccc34)cc2c1` [6′, 3-((1H-indol-2-yl)methyl)-1H-indole], for which the half-maximal effective concentration (EC50) at AhR (setting [4]) was 215 ± 460 nM. Consider `Cn1cc(Cc2cc3ccccc3[nH]2)c2ccccc21` [Compound 2351377824], for which the EC50 on AhR (Table 5, read-out: AhR, EC50) was 90 nM. Besides, the IC50 in data set [1] worked out at 17900 nM.

`Clc1ccc2[nH]cc(Cc3cc4ccccc4[nH]3)c2c1` [Compound 2351377819]: a half-maximal effect with GLP-1 secretion (EC50) was put at 14.8 µM. The same compound gave an IC50 in data set [1] of 10000 nM.

On to `COc1ccc2[nH]cc(Cc3[nH]c4ccccc4c3C=O)c2c1` [Compound 11c], for which the EC50 at AhR (setting [4]) is 230 ± 100 nM. For `Cn1cc(Cc2[nH]c3ccccc3c2C=O)c2ccccc21` [Compound 11d], the “EC50 value relative to that of malassezin” value on AhR (EROD assay, HepG2 cells) was “about five”. Further, the EC50 on AhR (setting [4]) was found to be 55 ± 30 nM. The “increase of signal over DMSO treatment” value at AhR stood at 6 fold.
